{"source": "patent US20250114582A1", "about": "“METHOD FOR EFFICIENT DRUG ADMINISTRATION ACROSS THE BLOOD-BRAIN BARRIER AND USES THEREOF” (Carthera, priority 2023, published 2025)", "key": {"[1]": {"conditions": "plasma kinetics used for the model; cited from earlier work"}, "[2]": {"system": "recurrent Glioblastoma Multiforme (GBM)", "experiment": "contrast enhancing tumor progression assessment on MRI in the clinical trial", "type": "in vivo, human", "conditions": "for tumor growth rate (median): hyperintense T1w volume in region targeted by the implant", "procedure": "To evaluate the local effect of the treatment, an analysis was performed using the monthly pre-ultrasound and end-of-study MR images. The T1w contrast-enhancing tumor-related region segmented with a semi-automatic method (ITK Snap) (Yushkevich et al. 2006, Neuroimage 31:1116-1128). The total volume of this hyperintense region was evaluated at each treatment cycle in the whole brain, and in the region targeted by the implant, considering nine […] cylinders in front of the emitters. This region corresponded to 10×75 mm cylinders with an additional diffusion margin of 5 mm (Goldwirt et al., 2016, Cancer Chemother. Pharmacol. 77:211-216).\nTo further evaluate tumor progression likelihood as a function of distance to the region targeted by the emitters, the difference of this hyperintense volume between the last MRI and the first cycle was used as a progression mask. The distribution of the volume of this progression mask relative to the distance to the axes of the nine emitters was computed."}, "[3]": {"system": "recurrent Glioblastoma Multiforme (GBM)", "experiment": "phase 1/2a clinical trial: carboplatin with LIPU/microbubble BBB opening (SonoCloud-9), clinical outcomes", "type": "in vivo, human", "procedure": "A prospective, open-label, multi-center, single-arm, dose escalation, phase 1/2a clinical trial was conducted enrolling recurrent Glioblastoma Multiforme (“GBM”) patients at four clinical sites in France and two sites in the United States. All patients provided written informed consent in accordance with institutional guidelines. Approval was obtained from the ANSM (French National Health Agency) and from the US FDA (Food and Drug Administration). The study was conducted in accordance with good clinical practices. The study began in February 2019 and follow-up was completed in November 2022.\nThe trial was designed to evaluate the safety and efficacy of transient disruption of the blood-brain barrier by low intensity pulsed ultrasound (“LIPU”) with an implantable ultrasound device, i.e., the SonoCloud-9 implantable device (“SC9”; Carthera, Lyon, France). The trial first evaluated the Dose Limiting Toxicity (“DLT”) of escalating numbers of ultrasound beams (3, 6, and 9 beams) at constant acoustic pressure (1.03 MPa) using a 3+3 dose escalation design (cohorts A, B and C) and then confirmed the safety and efficacy of BBB opening in two expansion cohorts (cohorts C & D).\n(§1) The secondary endpoints included the frequency and severity of adverse events (incidence of adverse events summarized by system organ class and/or preferred term and severity) based on the CTCAE, version 5.0, the time to and localization of recurrence(s) on magnetic resonance imaging, feasibility of the procedure considering the time required for the sonication (from beginning of needle connection to the end of ultrasound emission and needle extraction) at the first 3 sonications of each patient, and the total time for SonoCloud 9 positioning using the SonoCloud 9 template. Six-month progression-free survival (6m-PFS), median progression-free survival (mPFS), and 1-year overall survival (1y-OS) and median OS (mOS) were also evaluated. In this trial, time to progression or to death was calculated from time of surgery/device implantation to time of events.\nThe SC9 device contains no internal energy source and is activated on demand by connecting the device to an external generator using a transdermal needle, as shown in FIG. 7A. Each sonication step consists of the generation of sequential pulses from each emitter (1 MHz, 25 ms pulse, 0.5 Hz, 270 seconds) in combination with the IV administration of the ultrasound resonator (microbubbles [MB], Definity®/Luminity® 10 μL/kg, Lantheus, N. Billerica, MA). The ultrasound resonator is injected as a 30-second bolus at the start of the ultrasound sonication procedure. Sonication was performed prior (within 60 minutes) to the carboplatin chemotherapy at cycles 1, 2 and 3 and no more than 30 minutes before the start of carboplatin therapy for the following cycles, for cohorts A, B, and C. For cohort D, the sonication was performed immediately after the completion of the carboplatin infusion. After completion of the six sonication cycles specified in the protocol or in the case of progression/premature discontinuation of the trial and prior to the end of study visit, the removal of the device could be performed unless considered as contra-indicated by the investigator or refused by the patient.\nStandard carboplatin chemotherapy using any FDA/ANSM-approved, therapeutically equivalent carboplatin injectable drug product, with a target AUC of 4-6 mg/ml*min (AUC as per local practice and investigators judgement) was given according to the Calvert formula (Calvert et al., 1989, J. Clin. Oncol. 7:1748-1756). Cycles were to be repeated every 4 weeks provided the absolute neutrophil count had recovered to ≥1500 cells/mm^3 and the platelet count was at least 100,000 cells/mm^3. Subsequent dosages were adjusted for toxicity as needed per local practice."}, "[4]": {"experiment": "dose-limiting toxicity, tolerability and safety of carboplatin delivered with concomitant LIPU/MB-based BBB opening", "type": "in vivo, human", "source_text": "For the Phase 1 (escalation of the number of active emitters/beams), the main objective was to identify the Maximum Tolerated Dose (“MTD”) defined as the highest active-beams level at which ≤1 DLT occurred in a maximum of 6 patients by cohort. […]\nas §1\nAll patients were clinically assessed at least once a month (prior to the next cycle) and included standard laboratory blood analyses (complete blood counts, chemistry with liver and kidney function tests), and also a contrast-enhanced MRI within 2 days prior to sonication. Patients discontinued the study if tumor progression was identified according to the Response Assessment in Neuro-Oncology criteria (Wen et al., 2010, J. Clin. Oncol. 28:1963-1972). For patients continuing the study, subsequent MRI exam was to be performed immediately after LIPU/MB treatment."}, "[5]": {"conditions": "cohort C, carboplatin after US (N = 15)"}, "[6]": {"conditions": "cohort D, carboplatin before US (N = 12)"}, "[7]": {"conditions": "cohorts C + D (N = 27), 9 emitters activated"}, "[8]": {"conditions": "CTCAE Grade 3, N = 34, related to the investigational procedure"}, "[9]": {"conditions": "CTCAE all grade, N = 34, related to the investigational procedure"}}, "note": "Several values for one entry are separate records, joined by “and”; a condition that tells them apart may be missing. Equal values may be shown once. Entries after “also recorded” stand apart in the source; their conditions may differ.", "data": [{"smiles": "N.N.O=C([O-])C1(C(=O)[O-])CCC1.[Pt+2]", "note": "[carboplatin]", "values": [{"measurement": "alpha half-life", "setting": "[1]", "result": "~1", "unit": "h"}, {"measurement": "beta half-life", "setting": "[1]", "result": "~6", "unit": "h"}, {"measurement": "tumor growth rate (median)", "setting": "[2]; cohort C (carboplatin after sonication)", "result": 2.31, "unit": "mL/month"}, {"measurement": "evolution of the T1w enhancement outside the sonication field", "setting": "[2]; cohort C vs cohort D, region targeted by the implant excluded (p=0.55)", "result": "no significant difference"}, {"measurement": "tumor growth rate (median)", "setting": "[2]; cohort D (carboplatin before sonication)", "result": 0.54, "unit": "mL/month"}, {"measurement": "in-field tumor control", "setting": "[2]; cohort D compared to cohort C", "result": "Better in-field tumor control"}, {"measurement": "local tumor progression probability (% ROI volume covered with hyperintense tumor at end of study vs distance to emitter axis)", "setting": "[2]; cohort D vs cohort C, up to 10 mm radius from emitter axes (significant up to 7.5 mm)", "result": "less likelihood; also recorded: lower"}, {"measurement": "1-yr OS", "setting": "[3]; [5]", "result": "46.7% and 47%"}, {"measurement": "9-month OS", "setting": "[3]; [5]", "result": 67, "unit": "%"}, {"measurement": "mOS", "setting": "[3]; [5]", "result": 11.8, "unit": "months"}, {"measurement": "mPFS", "setting": "[3]; [5]", "result": 2.5, "unit": "months"}, {"measurement": "1-yr OS", "setting": "[3]; [6]", "result": "58.3% and 58%"}, {"measurement": "9-month OS", "setting": "[3]; [6]", "result": 75, "unit": "%"}, {"measurement": "mOS", "setting": "[3]; [6]", "result": 14.0, "unit": "months"}, {"measurement": "mPFS", "setting": "[3]; [6]", "result": 3.1, "unit": "months"}, {"measurement": "1-yr OS", "setting": "[3]; [7]", "result": 52, "unit": "%"}, {"measurement": "9-month OS", "setting": "[3]; [7]", "result": 70, "unit": "%"}, {"measurement": "mOS", "setting": "[3]; [7]", "result": 12.4, "unit": "months"}, {"measurement": "mPFS", "setting": "[3]; [7]", "result": 2.7, "unit": "months"}, {"measurement": "General disorders and administration site conditions", "setting": "[4]; [8]", "result": "1 (3%)"}, {"measurement": "Infections and infestations", "setting": "[4]; [8]", "result": "2 (6%)"}, {"measurement": "Nervous system disorders", "setting": "[4]; [8]", "result": "3 (9%)"}, {"measurement": "Patients with Any Related TEAEs (Overall)", "setting": "[4]; [8]", "result": "12 (35%)"}, {"measurement": "Skin and subcutaneous tissue disorders", "setting": "[4]; [8]", "result": "6 (18%)"}, {"measurement": "Anxiety", "setting": "[4]; [9]", "result": "1 (3%)"}, {"measurement": "Aphasia", "setting": "[4]; [9]", "result": "4 (12%)"}, {"measurement": "Balance disorder", "setting": "[4]; [9]", "result": "1 (3%)"}, {"measurement": "Cerebrospinal fluid leakage", "setting": "[4]; [9]", "result": "2 (6%)"}, {"measurement": "Confusional state", "setting": "[4]; [9]", "result": "1 (3%)"}, {"measurement": "Depression", "setting": "[4]; [9]", "result": "1 (3%)"}, {"measurement": "Diplopia/Vision blurred", "setting": "[4]; [9]", "result": "6 (17%)"}, {"measurement": "Dizziness", "setting": "[4]; [9]", "result": "8 (24%)"}, {"measurement": "Dysarthria", "setting": "[4]; [9]", "result": "2 (6%)"}, {"measurement": "Ear and labyrinth disorders", "setting": "[4]; [9]", "result": "2 (6%)"}, {"measurement": "Fatigue/Asthenia", "setting": "[4]; [9]", "result": "6 (18%)"}, {"measurement": "General disorders and administration site conditions", "setting": "[4]; [9]", "result": "8 (24%)"}, {"measurement": "Headache", "setting": "[4]; [9]", "result": "7 (21%)"}, {"measurement": "Hypoaesthesia", "setting": "[4]; [9]", "result": "1 (3%)"}, {"measurement": "Implant site pain", "setting": "[4]; [9]", "result": "1 (3%)"}, {"measurement": "Infections and infestations", "setting": "[4]; [9]", "result": "2 (6%)"}, {"measurement": "Injury, poisoning and procedural complications", "setting": "[4]; [9]", "result": "3 (9%)"}, {"measurement": "Lacunar stroke", "setting": "[4]; [9]", "result": "1 (3%)"}, {"measurement": "Language disorder", "setting": "[4]; [9]", "result": "1 (3%)"}, {"measurement": "Meningocele acquired", "setting": "[4]; [9]", "result": "3 (9%)"}, {"measurement": "Monoparesis", "setting": "[4]; [9]", "result": "1 (3%)"}, {"measurement": "Nervous system disorders", "setting": "[4]; [9]", "result": "25 (74%)"}, {"measurement": "Pain of skin", "setting": "[4]; [9]", "result": "19 (56%)"}, {"measurement": "Paraesthesia", "setting": "[4]; [9]", "result": "3 (9%)"}, {"measurement": "Patients with Any Related TEAEs (Overall)", "setting": "[4]; [9]", "result": "33 (97%)"}, {"measurement": "Post procedural oedema", "setting": "[4]; [9]", "result": "1 (3%)"}, {"measurement": "Presyncope", "setting": "[4]; [9]", "result": "2 (6%)"}, {"measurement": "Psychiatric disorders", "setting": "[4]; [9]", "result": "2 (6%)"}, {"measurement": "Scar", "setting": "[4]; [9]", "result": "1 (3%)"}, {"measurement": "Seizure", "setting": "[4]; [9]", "result": "2 (6%)"}, {"measurement": "Skin and subcutaneous tissue disorders", "setting": "[4]; [9]", "result": "19 (56%)"}, {"measurement": "Subarachnoid haemorrhage", "setting": "[4]; [9]", "result": "1 (3%)"}, {"measurement": "Vertigo", "setting": "[4]; [9]", "result": "2 (6%)"}, {"measurement": "Wound infection/Postoperative wound infection", "setting": "[4]; [9]", "result": "2 (6%)"}, {"measurement": "grade 4 events", "setting": "[4]; CTCAE, all implanted patients", "result": "No grade 4 events"}, {"measurement": "tolerability of device implantation and repeated BBB opening procedure", "setting": "[4]; all patients", "result": "well-tolerated"}, {"measurement": "pattern of hematological and non-hematological toxicities secondary to carboplatin", "setting": "[4]; e.g. bone marrow suppression, anemia, vomiting", "result": "as expected"}, {"measurement": "Dose Limiting Toxicity (DLT)", "setting": "[4]; sonication plus carboplatin, 3, 6 and 9 beams", "result": "No DLTs"}]}, {"smiles": "CC(=O)O[C@H]1C(=O)[C@@]2(C)[C@H]([C@H](OC(=O)c3ccccc3)[C@]3(O)C[C@H](OC(=O)[C@H](O)[C@@H](NC(=O)c4ccccc4)c4ccccc4)C(C)=C1C3(C)C)[C@]1(OC(C)=O)CO[C@@H]1C[C@@H]2O", "note": "[paclitaxel]", "values": [{"measurement": "alpha half-life", "setting": "[1]", "result": "~0.5", "unit": "h"}, {"measurement": "beta half-life", "setting": "[1]", "result": "several hours"}]}]}
